Columns and labels:
[1] = system: ASIC3 currents in CHO cells expressing alone ASIC3, but not expressing PAR2; assay: Whole-cell patch clamp, CHO cells expressing ASIC3 alone (no PAR2); assay type: cell-based, Chinese hamster; settings: 10^−5 M; P > 0.1; n = 10
Procedure: ASIC3, ASIC1a, ASIC1b, ASIC2b, and PAR2 complementary DNAs (cDNAs) were used for heterologous expression in CHO cells as described previously (Wang et al., 2013). In brief, CHO cells were cultured at 37 °C in a humidified atmosphere of 5% CO2 and […] and passaged twice a week. Transient transfection of CHO cells was performed using HilyMax liposome transfection reagent (Dojindo Laboratories). CHO cells were maintained in F-12 Nutrient Mixture (added 1.176 g of NaHCO3/L medium) supplemented with 10% fetal bovine serum and 1% gluta-MAXTM-1 (100×; Invitrogen). When ASIC3 and PAR2 cDNAs were co-transfected, the ratio was kept at 1:1. All plasmids used contained, in addition to the desired ASIC3 cDNA, the coding sequence for enhanced green fluorescent protein to aid identification of transfected cells. Electrophysiological measurements were performed 24–48 h after transfection.
Whole-cell patch clamp and voltage clamp recordings were carried out at room temperature (22–25 °C) using a MultiClamp-700B amplifier and Digidata-1440A A/D converter (Axon Instruments, CA, USA). […]
Drugs purchased from Sigma and used in the experiments include hydrochloric acid, 2-furoyl-LIGRLO-NH2 (a PAR2-activating peptide (PAR2-AP)), trypsin, FSLLRY-NH2, APETx2, and capsazepine. […] The application pipette tips were positioned ∼30 μm away from the recorded neurons. […]

[2] = system: rats; assay: Nociceptive behavior (flinches) induced by intraplantar acetic acid in rats; assay type: in vivo, rat; settings: capsazepine 100 μM, n = 10
Procedure: Rats were placed in a 30 × 30 × 30 cm Plexiglas chamber and allowed to habituate for at least 30 min before nociceptive behavior experiments. A blind experiment was carried out. Separate groups of rats were coded and pretreated with 20 μl capsazepine (100 μM) together with vehicle and different dosages of PAR2-AP, FSLLRY-NH2, or APETx2 in the ipsilateral hind paw before injection of acetic acid. […] And nociceptive behavior (that is, number of flinches) was counted over a 5-min period starting immediately after the injection.
We finally ascertain whether PAR2-AP facilitates pain-related behaviors through interacting with ASIC3 in vivo. Acetic acid (0.6%) was injected into the right hind paws of rats and measured the number of flinches that the animals spent licking and/or lifting the injected paw. Intraplantar injection of acetic acid elicits an intense flinch/shaking response which mainly occurred during 0–5 min after injection of acetic acid. […] However, the low dose (1 μg) of PAR2-AP had no effect on the acidosis-induced nocifensive behaviors (Bonferroni’s post hoc test, P > 0.1, n = 10). In addition, the exacerbating effect of 10 μg PAR2-AP on acidosis-induced nocifensive behaviors was blocked by co-administration of 20 μg FSLLRY-NH2, a selective PAR2 antagonist (Bonferroni’s post hoc test, P < 0.01, compared with 10 μg PAR2-AP alone, n = 10; Fig. 6a).

Substance: 2-furoyl-LIGRLO-NH2 [PAR2-AP]
- effect on I pH 6.6 in ASIC3-transfected CHO cells without PAR2 [1]: Neither PAR2-AP nor trypsin had an effect
- effect on acidosis-induced nocifensive behaviors (number of flinches), low dose ([2]; PAR2-AP 1 μg intraplantar, 5 min before acetic acid 0.6%, 20 μl, flinches over 5 min, P > 0.1): no effect
- acetic acid-induced number of flinches vs acetic acid alone, medium dose ([2]; PAR2-AP 3 μg intraplantar, P < 0.05): significantly greater
- acetic acid-induced number of flinches vs acetic acid alone, high dose ([2]; PAR2-AP 10 μg intraplantar, P < 0.01): significantly greater
